Holding throughout (assay type): biochemical
Assay [1] deals with T1, CDK9/Cyclin T1 (Homo sapiens, UniProt P50750).
T1 construct: purchased Invitrogen
As to the kind of experiment: CDK9 Enzymatic Activity Assay (Lance Kinase Activity Assay, FRET). As to conditions: for CDK9: Selectivity of CDK7 inhibition over CDK9 inhibition [fold]: Table 5B, symbols per IC50 ranges of b615. As to the method: (§1) This protocol describes how the Lance Kinase Activity Assay was performed to determine IC50 values of compounds of general formula (I) against CDK/Cyclin complexes. The principle behind this enzymatic assay is based upon the phosphorylation of the Ulight-Peptide Substrat. It is detected by using a specific EU-labeled anti-phospho peptide antibody.
(§2) Binding of an inhibitor to the kinase prevents phosphorylation of the ULlight-MBP Substrat, resulting in a loss of FRET.
CDK9 Enzymatic Activity Assay
(§3) The compounds of general formula (I) exemplary summarized in Table 1 were diluted from a 10 mM DMSO stock solution 1:10 in a total volume of 15 μl DMSO. This compound predilution was then serial diluted 1:3 over 8 steps in DMSO and briefly spun down. Each compound solution was now diluted 1:20 in Enzymatic Buffer (HEPES: 50 mM, pH: 7.5; MgCl2: 10 mM; EGTA: 1 mM; DTT: 2 mM; Tween-20: 0.01%), mixed thoroughly and spun down.
(§4) For positive controls, 2 μl of DMSO working solution were mixed with 6 μl CDK9/cyclin T1/substrate working solution and 2 μl ATP working solution. Positive and negative controls were calculated from at least 8 different wells. The 384 well plates were mixed in a Teleshaker plate mixer (Beckman Coulter, Brea, Calif., USA) at 2000 rpm for 40 sec, and incubated for 1 h at room temperature before addition of 10 μl LANCE Detection Buffer (1×; EDTA: […]; Eu-Anti-P-MBP: 4 nM) per well. Plates were mixed in a Teleshaker plate mixer (Beckman Coulter, Brea, Calif., USA) at 2000 rpm for sec, followed by incubation with Detection Buffer for 1 h, and reading. […] IC50 values were determined from the sigmoidal dose response curves with the software Quattro Workflow (Quattro GmbH, Munich, Germany).

The target in assay [2] is T2, CDK2/CycA (Homo sapiens, UniProt P24941).
T2 construct: purchased Proqinase
As to the kind of experiment: CDK2 Enzymatic Activity Assay (Lance Kinase Activity Assay, FRET). As to conditions: for CDK2 IC50 range class: Table 5B, symbols per IC50 ranges of b615. The method, then: as §1, §2
CDK2 Enzymatic Activity Assay
as §3
as §4, with “CDK2/CycA/substrate” for “CDK9/cyclin T1/substrate”, “(EDTA:” for “(1×; EDTA:”

For assay [3], the target named is T3, CDK7/CycH/Mat1 (Homo sapiens, UniProt P50613).
T3 construct: purchased Carna
As to the kind of experiment: CDK7 Enzymatic Activity Assay (Lance Kinase Activity Assay, FRET). As to the method: as §1, §2
CDK7 Enzymatic Activity Assay
as §3
as §4, with “6 μl CDK7/CycH/Mat1/substrate working solution” for “6 μl CDK9/cyclin T1/substrate working solution”, “rpm for 40 sec, followed” for “rpm for sec, followed”

The mark [4] stands for this setting: Table 5A, 25 μM ATP final, read-out: CDK7: IC50 [mM] for CDK7 inhibition (the above defined ranges apply).

Read-outs that look alike come from different tables or passages of the source. Where only a bound is given, the exact number is not on record here.

The source of these data is patent US9096608B2, “Pharmaceutically active pyrazolo-triazine derivatives” (LEAD DISCOVERY CENTER GMBH, priority 2012, dated 2015).

T1 sequence (P50750 whole entry): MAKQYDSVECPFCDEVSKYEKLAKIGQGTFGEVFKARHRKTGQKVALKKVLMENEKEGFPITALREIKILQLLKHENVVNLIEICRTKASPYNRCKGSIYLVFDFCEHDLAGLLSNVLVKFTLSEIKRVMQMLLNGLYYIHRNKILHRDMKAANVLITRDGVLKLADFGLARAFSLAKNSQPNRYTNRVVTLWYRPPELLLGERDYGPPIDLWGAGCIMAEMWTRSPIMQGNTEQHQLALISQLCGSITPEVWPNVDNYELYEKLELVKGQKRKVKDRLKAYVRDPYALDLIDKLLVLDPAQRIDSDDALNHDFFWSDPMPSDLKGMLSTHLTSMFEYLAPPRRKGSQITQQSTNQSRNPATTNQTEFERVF
T1 sequence (O60563 whole entry partner): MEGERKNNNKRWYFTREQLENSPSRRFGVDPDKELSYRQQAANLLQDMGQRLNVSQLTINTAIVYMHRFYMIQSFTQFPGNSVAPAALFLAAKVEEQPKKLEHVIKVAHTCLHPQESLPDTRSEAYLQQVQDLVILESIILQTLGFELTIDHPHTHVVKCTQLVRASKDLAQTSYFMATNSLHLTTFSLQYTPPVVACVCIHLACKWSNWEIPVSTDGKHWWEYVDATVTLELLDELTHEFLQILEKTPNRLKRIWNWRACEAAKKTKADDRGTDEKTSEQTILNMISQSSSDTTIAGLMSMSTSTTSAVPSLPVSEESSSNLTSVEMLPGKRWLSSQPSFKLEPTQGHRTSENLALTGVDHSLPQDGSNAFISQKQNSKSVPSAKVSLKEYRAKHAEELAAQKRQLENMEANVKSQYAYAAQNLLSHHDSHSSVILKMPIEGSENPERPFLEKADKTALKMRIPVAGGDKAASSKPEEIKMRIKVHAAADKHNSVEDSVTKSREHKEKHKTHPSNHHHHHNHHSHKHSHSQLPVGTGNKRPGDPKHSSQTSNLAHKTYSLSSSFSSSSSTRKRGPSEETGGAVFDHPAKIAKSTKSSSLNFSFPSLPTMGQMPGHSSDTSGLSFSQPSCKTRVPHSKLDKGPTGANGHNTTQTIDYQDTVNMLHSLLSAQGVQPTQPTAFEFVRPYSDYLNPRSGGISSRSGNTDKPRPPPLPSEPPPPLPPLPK
T3 sequence (P50613 whole entry): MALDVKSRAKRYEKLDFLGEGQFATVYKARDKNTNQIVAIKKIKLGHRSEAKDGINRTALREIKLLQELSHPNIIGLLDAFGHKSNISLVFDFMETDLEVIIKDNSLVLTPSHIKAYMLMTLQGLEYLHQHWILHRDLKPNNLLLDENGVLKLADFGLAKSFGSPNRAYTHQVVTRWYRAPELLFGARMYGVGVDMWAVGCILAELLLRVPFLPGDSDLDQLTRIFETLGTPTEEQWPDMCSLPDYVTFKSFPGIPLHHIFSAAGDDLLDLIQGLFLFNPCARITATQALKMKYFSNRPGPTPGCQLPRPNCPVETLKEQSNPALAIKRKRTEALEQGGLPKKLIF
T3 sequence (P51946 whole entry partner): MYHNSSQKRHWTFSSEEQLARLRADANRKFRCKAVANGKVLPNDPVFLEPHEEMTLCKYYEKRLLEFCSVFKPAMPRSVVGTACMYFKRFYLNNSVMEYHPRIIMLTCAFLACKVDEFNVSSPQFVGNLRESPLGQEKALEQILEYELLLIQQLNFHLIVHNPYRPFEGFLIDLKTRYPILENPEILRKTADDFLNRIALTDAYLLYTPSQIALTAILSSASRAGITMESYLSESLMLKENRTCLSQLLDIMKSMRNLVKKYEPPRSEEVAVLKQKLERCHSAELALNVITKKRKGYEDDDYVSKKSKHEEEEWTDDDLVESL
T3 sequence (P51948 whole entry partner): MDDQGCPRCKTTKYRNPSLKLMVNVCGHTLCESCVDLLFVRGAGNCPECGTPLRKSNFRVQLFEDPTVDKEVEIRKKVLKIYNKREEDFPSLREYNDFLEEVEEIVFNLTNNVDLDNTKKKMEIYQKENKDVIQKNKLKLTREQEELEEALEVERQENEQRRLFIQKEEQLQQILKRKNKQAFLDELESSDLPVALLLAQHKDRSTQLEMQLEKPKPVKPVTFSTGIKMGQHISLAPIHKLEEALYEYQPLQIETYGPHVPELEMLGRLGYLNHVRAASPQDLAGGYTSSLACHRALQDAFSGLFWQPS

Consider `CCOc1cccc([C@H](C)Nc2nc(O[C@@H]3CCCNC3)nc3c(C(C)C)cnn23)c1` [(VII-aV), N-((S)-1-(3-ethoxyphenyl)ethyl)-8-isopropyl-2-((R)-piperidin-3-yloxy)pyrazolo[1.5-a][1,3,5]triazin-4-amine], for which the “CDK9: Selectivity of CDK7 inhibition over CDK9 inhibition [fold]” value in assay [1] is reported as “+++ (IC50>2500 nM)”. Moreover, the “CDK2 IC50 range class” value in assay [2] is listed as “+++ (IC50>2500 nM)”. In addition, the IC50 in assay [3] (setting [4]) was greater than 100 nM.
In the case of `COc1cccc([C@H](C)Nc2nc(O[C@@H]3CCCNC3)nc3c(C(C)C)cnn23)c1OC` [(VII-aX), N-((S)-1-(2,3-dimethoxy-phenyl)ethyl)-8-isopropyl-2-((R)-piperidin-3-yloxy)pyrazolo[1,5-a][1,3,5]triazin-4-amine], the “CDK9: Selectivity of CDK7 inhibition over CDK9 inhibition [fold]” value in assay [1] is reported as “+++ (IC50>2500 nM)”. Also, the “CDK2 IC50 range class” value in assay [2] was “+++ (IC50>2500 nM)”. Besides, the IC50 in assay [3] (setting [4]) is less than 10 nM.
`COc1ccc([C@H](C)Nc2nc(OC3CCN(C)CC3)nc3c(C(C)C)cnn23)cc1` [(VII-aa), (S)-8-isopropyl-N-(1-(4-methoxyphenyl)ethyl)-2-((1-methylpiperidin-4-yl)oxy)pyrazolo[1,5-a][1,3,5]triazin-4-amine]: in assay [1], the “CDK9: Selectivity of CDK7 inhibition over CDK9 inhibition [fold]” value is “+++ (IC50>2500 nM)”. The “CDK2 IC50 range class” value in assay [2] is given as “+++ (IC50>2500 nM)”. Besides, in assay [3] (setting [4]), the IC50 was greater than 100 nM.
Consider `CC(C)c1cnn2c(N[C@H](C)c3cccc(Cl)c3)nc(OC3CCN(C)CC3)nc12` [(VII-ad), (R)-N-(1-(3-chlorophenyl)ethyl)-8-isopropyl-2-((1-methylpiperidin-4-yl)oxy)pyrazolo[1,5-a][1,3,5]triazin-4-amine], for which the “CDK9: Selectivity of CDK7 inhibition over CDK9 inhibition [fold]” value in assay [1] is recorded as “+++ (IC50>2500 nM)”. Further, the “Selectivity CDK7 over CDK9 [fold]” value in assay [1] (Table 7, lower part) is 815 fold. Also, the IC50 is greater than 2500 nM in assay [1] (Table 7, upper part); greater than 2500 nM in assay [2] (Table 7, upper part); less than 10 nM in assay [3] (setting [4]); less than 10 nM in assay [3] (Table 7, lower part, read-out: IC50 [nM] CDK7); less than 10 nM in assay [3] (Table 7, upper part, read-out: IC50 [nM] CDK7). The “Selectivity CDK7 over CDK2 [fold]” value in assay [2] (Table 7, lower part) is given as 968 fold.
Regarding `Cc1ccccc1[C@H](C)Nc1nc(O[C@@H]2CCCNC2)nc2c(C(C)C)cnn12` [(VII-af), 8-isopropyl-2-((R)-piperidin-3-yloxy)-N-((S)-1-(o-tolyl)ethyl)pyrazolo[1,5-a][1,3,5]triazin-4-amine], the “CDK9: Selectivity of CDK7 inhibition over CDK9 inhibition [fold]” value in assay [1] is reported as “+++ (IC50>2500 nM)”. The “CDK2 IC50 range class” value in assay [2] was “+++ (IC50>2500 nM)”. Besides, the IC50 in assay [3] (setting [4]) lay in the range of 10 to 30 nM.
Consider `CC(C)c1cnn2c(N[C@@H](C)c3ccccc3C(F)(F)F)nc(O[C@@H]3CCCNC3)nc12` [(VII-ah), 8-isopropyl-2-((R)-piperidin-3-yloxy)-N-((S)-1-(2-(trifluoromethyl)phenyl)ethyl)pyrazolo[1,5-a][1,3,5]triazin-4-amine], for which the “CDK9: Selectivity of CDK7 inhibition over CDK9 inhibition [fold]” value in assay [1] is reported as “+++ (IC50>2500 nM)”. In assay [2], the “CDK2 IC50 range class” value is reported as “+++ (IC50>2500 nM)”. The IC50 in assay [3] (setting [4]) lay in the range of 10 to 30 nM.
`CC(C)c1cnn2c(N[C@@H](C)c3cccc(Cl)c3)nc(O[C@@H]3CCCNC3)nc12` [(VII-aj), N-((S)-1-(3-chlorophenyl)ethyl)-8-isopropyl-2-((R)-piperidin-3-yloxy)pyrazolo[1,5-a][1,3,5]triazin-4-amine]: in assay [1], the “CDK9: Selectivity of CDK7 inhibition over CDK9 inhibition [fold]” value was “+++ (IC50>2500 nM)”. The “CDK2 IC50 range class” value in assay [2] is listed as “+++ (IC50>2500 nM)”. In assay [3] (setting [4]), the IC50 lay in the range of 30 to 100 nM.
For `CC(C)c1cnn2c(N[C@@H](C)c3cccc(F)c3)nc(O[C@@H]3CCCNC3)nc12` [(VII-ak), N-((S)-1-(3-fluorophenyl)ethyl)-8-isopropyl-2-((R)-piperidin-3-yloxy)pyrazolo[1,5-a][1,3,5]triazin-4-amine], in assay [1], the “CDK9: Selectivity of CDK7 inhibition over CDK9 inhibition [fold]” value is recorded as “+++ (IC50>2500 nM)”. For the same compound, in assay [2], the “CDK2 IC50 range class” value is listed as “+++ (IC50>2500 nM)”. Also, in assay [3] (setting [4]), the IC50 is 30 to 100 nM.
Consider `CC(C)c1cnn2c(N[C@@H](C)c3ccc(Cl)cc3)nc(O[C@@H]3CCCNC3)nc12` [(VII-al), N-((S)-1-(4-chlorophenyl)ethyl)-8-isopropyl-2-((R)-piperidin-3-yloxy)pyrazolo[1,5-a][1,3,5]triazin-4-amine], for which the “CDK9: Selectivity of CDK7 inhibition over CDK9 inhibition [fold]” value in assay [1] is “+++ (IC50>2500 nM)”. Also, the “CDK2 IC50 range class” value in assay [2] is given as “+++ (IC50>2500 nM)”. Besides, the IC50 in assay [3] (setting [4]) was greater than 100 nM.
Turning to `CC(C)c1cnn2c(N[C@@H](C)c3cccc4ccccc34)nc(O[C@@H]3CCCNC3)nc12` [(VII-am), 8-isopropyl-N-((S)-1-(naphthalen-1-yl)ethyl)-2-((R)-piperidin-3-yloxy)pyrazolo[1,5-a][1,3,5]triazin-4-amine], the “CDK9: Selectivity of CDK7 inhibition over CDK9 inhibition [fold]” value in assay [1] is given as “+++ (IC50>2500 nM)”. For the same compound, the “CDK2 IC50 range class” value in assay [2] is “+++ (IC50>2500 nM)”. Also, the IC50 in assay [3] (setting [4]) is 10 to 30 nM.
Take `COc1cccc([C@H](C)Nc2nc(OC3CCNCC3)nc3c(C(C)C)cnn23)c1` [(VII-q), (S)-8-isopropyl-N-(1-(3-methoxyphenyl)ethyl)-2-(piperidin-4-yloxy)pyrazolo[1,5-a][1,3,5]triazin-4-amine]: in assay [1], the “CDK9: Selectivity of CDK7 inhibition over CDK9 inhibition [fold]” value is “+++ (IC50>2500 nM)”. Further, the IC50 in assay [3] (setting [4]) is less than 10 nM.
Turning to `CC(C)c1cnn2c(N[C@H](c3ccccc3)C3CC3)nc(O[C@@H]3CCCNC3)nc12` [(VII-s), N-((S)-cyclopropyl(phenyl)methyl)-8-isopropyl-2-((R)-piperidin-3-yloxy)pyrazolo[1,5-a][1,3,5]triazin-4-amine], in assay [2], the “CDK2 IC50 range class” value is given as “+++ (IC50>2500 nM)”. In addition, the IC50 in assay [3] (setting [4]) fell in the range of 10 to 30 nM.
With `CC(C)c1cnn2c(N[C@@H](C)c3ccccc3Cl)nc(O[C@@H]3CCCNC3)nc12` [(VII-t), N-((S)-1-(2-chlorophenyl)ethyl)-8-isopropyl-2-((R)-piperidin-3-yloxy)pyrazolo[1,5-a][1,3,5]triazin-4-amine], the “CDK9: Selectivity of CDK7 inhibition over CDK9 inhibition [fold]” value in assay [1] is “+ (50 nM<IC50≦500 nM)”. The IC50 in assay [3] (setting [4]) was less than 10 nM.
In the same order, the values of `CC(C)c1cnn2c(N[C@@H](C)c3ccc(Cl)cc3)nc(OC3CCN(C)CC3)nc12` [(VII-y), (S)-N-(1-(4-chlorophenyl)ethyl)-8-isopropyl-2-((1-methylpiperidin-4-yl)oxy)pyrazolo[1,5-a][1,3,5]triazin-4-amine] are “+++ (IC50>2500 nM)” and greater than 100 nM.
For `CC(C)c1cnn2c(N[C@@H](C)c3ccccc3)nc(NC3CCNCC3)nc12` [(VIII-d), (S)-8-isopropyl-N4-(1-phenylethyl)-N2-(piperidin-4-yl)pyrazolo[1,5-a][1,3,5]triazine-2,4-diamine], in assay [2], the “CDK2 IC50 range class” value is “+++ (IC50>2500 nM)”. Moreover, the IC50 in assay [3] (setting [4]) fell in the range of 10 to 30 nM.
As for `COc1ccccc1[C@H](C)Nc1nc(N[C@@H]2CCCNC2)nc2c(C(C)C)cnn12` [(VIII-g), 8-isopropyl-N4-((S)-1-(2-methoxyphenyl)ethyl)-N2-((R)-piperidin-3-yl)pyrazolo[1,5-a][1,3,5]triazine-2,4-diamine], in assay [1], the “CDK9: Selectivity of CDK7 inhibition over CDK9 inhibition [fold]” value is recorded as “+++ (IC50>2500 nM)”. Also, the IC50 in assay [3] (setting [4]) is less than 10 nM.
With `COc1cccc(CNc2nc(OC3CCN(C)CC3)nc3c(C(C)C)cnn23)c1` [C-II, reference compound], the “Selectivity CDK7 over CDK9 [fold]” value in assay [1] (Table 6, CDK9 activity as multiple of CDK7 activity) was 9 fold. Besides, the IC50 in assay [3] (Table 6, read-out: IC50 [nM] CDK7) was less than 10 nM.
